ChEMBL document CHEMBL3045875, “Design, synthesis, and biological evaluation studies of novel quinazolinone derivatives as anticonvulsant agents” (Med Chem Res, 2013)

Columns and labels:
[1] = Toxicity in ip dosed Swiss albino Mus musculus (mouse) assessed as mortality; type: organism-based; conditions: in vivo
Mus musculus [2] = test: Anticonvulsant activity in ip dosed Swiss albino Mus musculus (mouse) assessed as protection against PTZ-induced seizures administered 30 min prior to PTZ-challenge; type: functional
Mus musculus [3] = test: Anticonvulsant activity in Swiss albino Mus musculus (mouse) assessed as protection against PTZ-induced seizures at 0.5 mmol/kg, i.p. administered 30 min prior to PTZ-challenge relative to control; type: functional
Mus musculus [4] = test: Anticonvulsant activity in Swiss albino Mus musculus (mouse) assessed as protection against Maximal electric shock-induced seizures at 0.5 mmol/kg, ip administered 30 min prior to electric shock-challenge relative to control; type: functional
[5] = Neurotoxicity in ip dosed Swiss albino Mus musculus (mouse) after 4 hr by rotarod test; type: toxicity, organism-based; conditions: in vivo
Mus musculus [6] = organism: Mus musculus; test: Protective index, ratio of TD50 to ED50 in Swiss albino Mus musculus (mouse)
[7] = Therapeutic index, ratio of LD50 to ED50 in Swiss albino Mus musculus (mouse); type: organism-based; conditions: in vivo, read-out: Ratio LD50/ED50
Mus musculus [8] = test: Anticonvulsant activity in Swiss albino Mus musculus (mouse) assessed as protection against Maximal electric shock-induced seizures at 0.8 mmol/kg, ip administered 30 min prior to electric shock-challenge relative to control; type: functional
Mus musculus [9] = test: Anticonvulsant activity in Swiss albino Mus musculus (mouse) assessed as protection against PTZ-induced seizures at 0.8 mmol/kg, i.p. administered 30 min prior to PTZ-challenge relative to control; type: functional
Mus musculus [10] = test: Anticonvulsant activity in Swiss albino Mus musculus (mouse) assessed as protection against Maximal electric shock-induced seizures at 1.8 mmol/kg, ip administered 30 min prior to electric shock-challenge relative to control; type: functional
Mus musculus [11] = test: Anticonvulsant activity in Swiss albino Mus musculus (mouse) assessed as protection against PTZ-induced seizures at 1.8 mmol/kg, i.p. administered 30 min prior to PTZ-challenge relative to control; type: functional

| Compound | ED50 (Mus musculus [2]) | Activity (Mus musculus [3]) | Activity (Mus musculus [4]) | TD50 at 4 h [5] | also measured |
| --- | --- | --- | --- | --- | --- |
| Cc1nc2c(I)cc(I)cc2c(=O)n1Cc1ccc(Br)cc1 | 138 mg/kg | 100% | 100% | 330 mg/kg | LD50 [1]: 565 mg/kg; Ratio TD50/ED50 (Mus musculus [6]): 2.39; selectivity ratio [7]: 4.09 |
| Cc1nc2c(I)cc(I)cc2c(=O)n1Cc1ccc(F)cc1 | 160 mg/kg | 100% | 100% | 360 mg/kg | LD50 [1]: 420 mg/kg; Ratio TD50/ED50 (Mus musculus [6]): 2.25; selectivity ratio [7]: 2.62 |
| COc1ccc(Cn2c(C)nc3c(I)cc(I)cc3c2=O)cc1 |  | 66% | 33% |  |  |
| Cc1nc2c(I)cc(I)cc2c(=O)n1Cc1cccc([N+](=O)[O-])c1 |  | 100% | 66% |  |  |
| Cc1ccc(Cn2c(C)nc3c(I)cc(I)cc3c2=O)cc1 |  | 50% | 33% |  |  |
| Cc1nc2c(I)cc(I)cc2c(=O)n1Cc1ccccc1 |  | 66% | 50% |  |  |
| Cc1ccccc1-n1c(C)nc2ccccc2c1=O [METHAQUALONE] | 200 mg/kg |  |  | 400 mg/kg | Activity (Mus musculus [8]): 100%; Activity (Mus musculus [9]): 100%; Ratio TD50/ED50 (Mus musculus [6]): 2 |
| CCCC(CCC)C(=O)[O-].[Na+] [VALPROATE SODIUM] | 300 mg/kg |  |  | 450 mg/kg | Activity (Mus musculus [10]): 100%; Activity (Mus musculus [11]): 100% |
| Cc1nc2c(I)cc(I)cc2c(=O)n1Cc1ccc(Cl)c(Cl)c1 |  | 66% | 66% |  |  |
| Cc1nc2c(I)cc(I)cc2c(=O)n1Cc1ccc(Cl)cc1 | 150 mg/kg | 100% | 100% | 280 mg/kg | LD50 [1]: 600 mg/kg; Ratio TD50/ED50 (Mus musculus [6]): 1.87; selectivity ratio [7]: 4 |
| Cc1nc2ccccc2c(=O)n1Cc1ccc(Br)cc1 |  | 66% | 66% |  |  |
| Cc1nc2c(I)cc(I)cc2c(=O)n1Cc1cccc(C(F)(F)F)c1 |  | 50% | 33% |  |  |
| Cc1nc2c(I)cc(I)cc2c(=O)n1Cc1cccc(Cl)c1 |  | 100% | 66% |  |  |
| Cc1nc2c(I)cc(I)cc2c(=O)n1Cc1ccc(I)cc1 |  | 66% | 66% |  |  |
| Cc1nc2ccc(I)cc2c(=O)n1Cc1ccc(Br)cc1 |  | 66% | 66% |  |  |
| Cc1nc2c(I)cc(I)cc2c(=O)n1-c1ccc(Br)cc1 |  | 100% | 66% |  |  |
